Measurements reported in ChEMBL document CHEMBL1201862, “PubChem BioAssay data set” (2004).
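Cultured in 96-well plates, cells were exposed to test compound for 48 hours across five concentrations. At the GI50, growth is halved.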 Active and inactive are the calls of the source. Cut-off read from the data, not from the text of the source: active = GI50 up to about 1.1 µM and inactive = higher.

Assays:
Experiment in all cases: growth of human tumour cells (NCI), 48 h
786-0 = system: 786-0
A498 = system: A498
A549 = system: A549
ACHN = system: ACHN
BT-549 = system: BT-549
CAKI-1 = system: CAKI-1
CCRF-CEM = system: CCRF-CEM
COLO 205 = system: COLO 205
DLD-1 = system: DLD-1
DMS-114 = system: DMS-114
DMS-273 = system: DMS-273
DU-145 = system: DU-145
EKVX = system: EKVX
HCC 2998 = system: HCC 2998
HCT-116 = system: HCT-116
HCT-15 = system: HCT-15
HL-60 = system: HL-60
HOP-18 = system: HOP-18
HOP-62 = system: HOP-62
HOP-92 = system: HOP-92
HT-29 = system: HT-29
Hs-578T = system: Hs-578T
IGROV-1 = system: IGROV-1
K562 = system: K562
KM-20L2 = system: KM-20L2
KM12 = system: KM12
LOX IMVI = system: LOX IMVI
LXFL 529 = system: LXFL 529
M14 = system: M14
M19-MEL = system: M19-MEL
MCF7 = system: MCF7
MDA-MB-231 = system: MDA-MB-231
MDA-MB-435 = system: MDA-MB-435
MDA-N = system: MDA-N
MOLT-4 = system: MOLT-4
Malme-3M = system: Malme-3M
NCI-H226 = system: NCI-H226
NCI-H23 = system: NCI-H23
NCI-H460 = system: NCI-H460
NCI-H522 = system: NCI-H522
NCI/ADR-RES = system: NCI/ADR-RES
OVCAR-3 = system: OVCAR-3
OVCAR-4 = system: OVCAR-4
OVCAR-5 = system: OVCAR-5
OVCAR-8 = system: OVCAR-8
PC-3 = system: PC-3
RPMI-8226 = system: RPMI-8226
RXF 393 = system: RXF 393
SF-268 = system: SF-268
SF-295 = system: SF-295
SF-539 = system: SF-539
SK-MEL-28 = system: SK-MEL-28
SK-MEL-2 = system: SK-MEL-2
SK-MEL-5 = system: SK-MEL-5
SK-OV-3 = system: SK-OV-3
SN12C = system: SN12C
SNB-19 = system: SNB-19
SNB-75 = system: SNB-75
SR = system: SR
SW-620 = system: SW-620
T47D = system: T47D
TK-10 = system: TK-10
U-251 = system: U-251
UACC-257 = system: UACC-257
UACC-62 = system: UACC-62
UO-31 = system: UO-31
XF498 = system: XF498
SNB-78 = system: SNB-78

## Cc1cc(NC(=O)NC(=O)c2ccccc2N)ccc1Oc1ncc(Br)cn1
786-0
  GI50: < 11.9 nM (active)
A498
  GI50: < 80.2 nM (active)
A549
  GI50: 11.2 nM (active)
ACHN
  GI50: 110 nM (active)
BT-549
  GI50: < 10 nM (active)
CAKI-1
  GI50: < 10 nM (active)
CCRF-CEM
  GI50: 11.1 nM (active)
COLO 205
  GI50: < 10.4 nM (active)
DLD-1
  GI50: < 16.1 nM (active)
DMS-114
  GI50: < 10 nM (active)
DMS-273
  GI50: < 31.6 nM (active)
DU-145
  GI50: 12.5 nM (active)
EKVX
  GI50: 82.6 nM (active)
HCC 2998
  GI50: 15.4 nM (active)
HCT-116
  GI50: < 12.4 nM (active)
HCT-15
  GI50: < 10.7 nM
HL-60
  GI50: < 10 nM (active)
HOP-18
  GI50: 28800 nM (inactive)
HOP-62
  GI50: 11.8 nM (active)
HOP-92
  GI50: 15.9 nM (active)
HT-29
  GI50: < 10.3 nM (active)
Hs-578T
  GI50: < 10 nM (active)
IGROV-1
  GI50: < 11 nM (active)
K562
  GI50: < 10 nM (active)
KM-20L2
  GI50: 16 nM (active)
KM12
  GI50: < 10.5 nM (active)
LOX IMVI
  GI50: 13.9 nM (active)
LXFL 529
  GI50: < 17.9 nM (active)
M14
  GI50: 11.7 nM (active)
M19-MEL
  GI50: 23.1 nM (active)
MCF7
  GI50: < 10 nM (active)
MDA-MB-231
  GI50: < 10 nM (active)
MDA-MB-435
  GI50: < 10 nM (active)
MDA-N
  GI50: < 10 nM (active)
MOLT-4
  GI50: < 13.5 nM (active)
Malme-3M
  GI50: < 10 nM (active)
NCI-H226
  GI50: 70.2 nM (active)
NCI-H23
  GI50: 12.5 nM (active)
NCI-H460
  GI50: < 11.2 nM (active)
NCI-H522
  GI50: < 10 nM (active)
NCI/ADR-RES
  GI50: < 10 nM (active)
OVCAR-3
  GI50: < 10 nM (active)
OVCAR-4
  GI50: 4780 nM (inactive)
OVCAR-5
  GI50: 39.6 nM (active)
OVCAR-8
  GI50: 21.7 nM (active)
PC-3
  GI50: < 10 nM (active)
RPMI-8226
  GI50: 25 nM (active)
RXF 393
  GI50: 24.4 nM (active)
SF-268
  GI50: 16.3 nM (active)
SF-295
  GI50: < 10 nM (active)
SF-539
  GI50: < 11 nM (active)
SK-MEL-28
  GI50: < 10 nM (active)
SK-MEL-2
  GI50: < 10 nM (active)
SK-MEL-5
  GI50: < 10 nM (active)
SK-OV-3
  GI50: 10.3 nM (active)
SN12C
  GI50: 58.3 nM (active)
SNB-19
  GI50: < 13.7 nM (active)
SNB-75
  GI50: 11.7 nM (active)
SR
  GI50: < 63.1 nM (active)
SW-620
  GI50: < 10.3 nM (active)
T47D
  GI50: 359 nM (active)
TK-10
  GI50: 239 nM (active)
U-251
  GI50: 14.1 nM (active)
UACC-257
  GI50: 65.5 nM (active)
UACC-62
  GI50: 34.7 nM (active)
UO-31
  GI50: 53.5 nM (active)
XF498
  GI50: 33.4 nM (active)

## c1ccc(C2SCc3nc4ccccc4n32)cc1 (centres undefined)
786-0
  GI50: > 100000 nM (inactive)
A498
  GI50: 40600 nM (inactive)
A549
  GI50: 50100 nM (inactive)
ACHN
  GI50: 59300 nM (inactive)
CAKI-1
  GI50: 42700 nM (inactive)
CCRF-CEM
  GI50: 76200 nM (inactive)
COLO 205
  GI50: 37800 nM (inactive)
DLD-1
  GI50: 49500 nM (inactive)
DMS-114
  GI50: 19000 nM (inactive)
DMS-273
  GI50: 33700 nM (inactive)
EKVX
  GI50: 39400 nM (inactive)
HCC 2998
  GI50: 30400 nM (inactive)
HCT-116
  GI50: 19700 nM (inactive)
HCT-15
  GI50: 44400 nM
HL-60
  GI50: 15600 nM (inactive)
HOP-18
  GI50: 4260 nM (inactive)
HOP-62
  GI50: 43800 nM (inactive)
HOP-92
  GI50: 22200 nM (inactive)
HT-29
  GI50: 46000 nM (inactive)
IGROV-1
  GI50: 29200 nM (inactive)
K562
  GI50: 32800 nM (inactive)
KM-20L2
  GI50: 47600 nM (inactive)
KM12
  GI50: 32400 nM (inactive)
LOX IMVI
  GI50: 39900 nM (inactive)
M14
  GI50: 84500 nM (inactive)
M19-MEL
  GI50: 41700 nM (inactive)
MOLT-4
  GI50: 28200 nM (inactive)
Malme-3M
  GI50: 38300 nM (inactive)
NCI-H226
  GI50: 17800 nM (inactive)
NCI-H23
  GI50: 31500 nM (inactive)
NCI-H460
  GI50: 40800 nM (inactive)
NCI-H522
  GI50: 18900 nM (inactive)
OVCAR-3
  GI50: 19100 nM (inactive)
OVCAR-4
  GI50: 66700 nM (inactive)
OVCAR-5
  GI50: > 100000 nM (inactive)
OVCAR-8
  GI50: 65000 nM (inactive)
RPMI-8226
  GI50: 20100 nM (inactive)
RXF 393
  GI50: 53200 nM (inactive)
SF-268
  GI50: 37900 nM (inactive)
SF-295
  GI50: 23000 nM (inactive)
SF-539
  GI50: 22500 nM (inactive)
SK-MEL-28
  GI50: 40300 nM (inactive)
SK-MEL-2
  GI50: 29600 nM (inactive)
SK-MEL-5
  GI50: 18600 nM (inactive)
SK-OV-3
  GI50: 91800 nM (inactive)
SN12C
  GI50: 46100 nM (inactive)
SNB-19
  GI50: 32200 nM (inactive)
SNB-75
  GI50: 3140 nM (inactive)
SNB-78
  GI50: 95500 nM (inactive)
SR
  GI50: 25800 nM (inactive)
SW-620
  GI50: 51400 nM (inactive)
TK-10
  GI50: 52400 nM (inactive)
U-251
  GI50: 58700 nM (inactive)
UACC-257
  GI50: 27800 nM (inactive)
UACC-62
  GI50: 37200 nM (inactive)
UO-31
  GI50: 24600 nM (inactive)
XF498
  GI50: 20700 nM (inactive)
